Source: patent US20110112057A1, “Sequential administration of 20,20,21,21,21-pentafluoro-17-hydroxy-11Beta-[4-(hydroxyacetyl)phenyl]-19-nor-17Alpha-pregna-4,9-dien-3-one and one or more progestogens for the treatment of gynaecological disorders” (BAYER SCHERING PHARIMA AKTIENGESELL SCHAFT, priority 2008, published 2011)

Experiments:
[1] = tested on: healthy, tube-ligated women; assay: randomised study on the effect of lonaprisan in healthy, tube-ligated women; assay type: in vivo
Experimental: 36 healthy, tube-ligated women from 24 to 43 years of age were subjects in a randomised study on the effect of lonaprisan. For this purpose, the women were divided into three groups: 7 women received placebo, 14 women 1 mg of lonaprisan and 15 women 10 mg of lonaprisan over a period of 3 months, once a day.

[2] = tested on: women of reproductive age; assay: randomised study of sequential treatment cycles with progesterone receptor antagonist followed by a progestogen; assay type: in vivo
Experimental: Women of reproductive age are treated in a randomised study sequentially in two treatment cycles with 20,20,21,21,21-pentafluoro-17-hydroxy-11β-[4-(hydroxyacetyl)phenyl]-19-nor-17α-pregna-4,9-dien-3-one. For this purpose, 20,20,21,21,21-pentafluoro-17-hydroxy-11β-[4-(hydroxyacetyl)phenyl]-19-nor-17α-pregna-4,9-dien-3-one is administered to the women in each case for 84 days with a daily dose of between about 1 mg and about 50 mg, followed by intake of a progestogen over a period of about 10 to 14 days. This complete treatment cycle is repeated once.

[3] = tested on: endometrium of patients with symptomatic uterine leiomyomata; conditions: after use for 3 months (Williams 2007); cited from earlier work
[4] = 1 mg or 10 mg lonaprisan once a day over 3 months, not observed in placebo group

## CC(=O)c1ccc([C@H]2C[C@@]3(C)[C@@H](CC[C@@]3(O)C(F)(F)C(F)(F)F)[C@@H]3CCC4=CC(=O)CCC4=C32)cc1 [lonaprisan, 11β-(4-acetylphenyl)-20,20,21,21,21-pentafluoro-17-hydroxy-19-nor-17α-pregna-4,9-dien-3-one]
[1]; [4]
  bleeding pattern: amenorrhoea or a greatly reduced bleeding
  effect on ovulation: inhibition of ovulation
[1]; after discontinuation of lonaprisan
  menstrual bleeding after discontinuation: spontaneous return of menstrual bleeding
[1]; after the first menstrual bleeding after completion of the treatment phase
  endometrial biopsies: persistent changes in the endometrium: no persistent changes in the endometrium

## C[C@]12C[C@H](c3ccc(C(=O)CO)cc3)C3=C4CCC(=O)C=C4CC[C@H]3[C@@H]1CC[C@@]2(O)C(F)(F)C(F)(F)F [20,20,21,21,21-pentafluoro-17-hydroxy-11β-[4-(hydroxyacetyl)phenyl]-19-nor-17α-pregna-4,9-dien-3-one]
[2]; 84 days, daily dose about 1 mg to about 50 mg
  bleeding pattern during the treatment phase: amenorrhoea or a greatly reduced bleeding
[2]; 84 days, daily dose about 1 mg to about 50 mg, followed by a progestogen for about 10 to 14 days, cycle repeated once
  bleeding after sequential treatment with the progestogen: menstrual bleeding following administration of the progestogen
[2]; after completion of each treatment cycle
  endometrial biopsies: persistent changes in the endometrium: no persistent changes in the endometrium

## COC[C@]1(OC)CC[C@H]2[C@@H]3CCC4=CC(=O)CCC4=C3[C@@H](c3ccc(/C=N/O)cc3)C[C@@]21C [asoprisnil]
[3]
  endometrial pattern diagnosed: non-physiological secretory effect
  endometrial vessels: thickening of the smooth muscle cell layer surrounding the endometrial vessels
